Source: PubChem BioAssay AID248 (DTP/NCI, 2004)
Toxic doses and inconclusive results are not listed. Rule as the data show it: active = T/C of 150% or more; inactive = T/C below 125%.

Tested on: L1210 leukemia ip in BDF1 mice, survival T/C
Experiment: NCI In Vivo Anticancer Drug Screen. Data for tumor model L1210 Leukemia (intraperitoneal) in B6D2F1 (BDF1) mice
Conditions: endpoint: mean survival time, higher = longer survival
Method in brief: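 Transplanted-tumor mice were given test agent; controls received vehicle only. Survival readings from the two groups were divided (treated over control).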

[1] = dose: 100.0 mg/kg/injection, schedule: Q01DX001 (ip), vehicle: saline
[2] = dose: 200.0 mg/kg/injection, schedule: Q01DX001 (ip), vehicle: saline

Measured: T/C

CCCCNC(=O)C1CC2c3c(Br)ccc4c3C(CC2N(C)C1)CN4C(C)=O (stereo not drawn)
inactive: dose: 20.0 mg/kg/injection, schedule: Q01DX001 (ip), vehicle: Klucel (hydroxypropylcellulose) (HPC) 98 % of control

O=CNc1c(Cl)c(Cl)c2c(c1Cl)Cc1cc(Cl)ccc1-2
inactive: dose: 50.0 mg/kg/injection, schedule: Q01DX001 (ip), vehicle: carboxymethylcellulose (CMC) 94 % of control | dose: 50.0 mg/kg/injection, schedule: Q04DX003 (ip), vehicle: acetone 97 % of control | dose: 75.0 mg/kg/injection, schedule: Q01DX009 (ip), vehicle: saline with Tween-80 108 % of control | dose: 100.0 mg/kg/injection, schedule: Q01DX001 (ip), vehicle: carboxymethylcellulose (CMC) 91 % of control | [1] 91 % of control | dose: 100.0 mg/kg/injection, schedule: Q04DX003 (ip), vehicle: acetone 105 % of control | dose: 150.0 mg/kg/injection, schedule: Q01DX009 (ip), vehicle: saline with Tween-80 109 % of control | dose: 200.0 mg/kg/injection, schedule: Q01DX001 (ip), vehicle: carboxymethylcellulose (CMC) 102 % of control | [2] 91 % of control | dose: 200.0 mg/kg/injection, schedule: Q04DX003 (ip), vehicle: acetone 94 % of control

O=S(=O)(O)c1ccc(-c2ccc([As](=O)(O)O)cc2)cc1
inactive: dose: 100.0 mg/kg/injection, schedule: Q04DX002 (ip), vehicle: saline with Tween-80 95 % of control | dose: 200.0 mg/kg/injection, schedule: Q04DX002 (ip), vehicle: saline with Tween-80 103 % of control | dose: 400.0 mg/kg/injection, schedule: Q04DX002 (ip), vehicle: saline with Tween-80 87 % of control

O=c1ccc2cccc(O)c2[nH]1
inactive: [1] 97 % of control | [2] 94 % of control | dose: 400.0 mg/kg/injection, schedule: Q01DX001 (ip), vehicle: saline 100 % of control

CCCCCC1CCC(OC(C)=O)CC1 (stereo not drawn)
inactive: dose: 100.0 mg/kg/injection, schedule: Q01DX001 (ip), vehicle: Klucel (hydroxypropylcellulose) (HPC) 99 % of control | dose: 100.0 mg/kg/injection, schedule: Q04DX003 (ip), vehicle: Klucel (hydroxypropylcellulose) (HPC) 101 % of control | dose: 200.0 mg/kg/injection, schedule: Q01DX001 (ip), vehicle: Klucel (hydroxypropylcellulose) (HPC) 96 % of control | dose: 200.0 mg/kg/injection, schedule: Q04DX003 (ip), vehicle: Klucel (hydroxypropylcellulose) (HPC) 95 % of control | dose: 400.0 mg/kg/injection, schedule: Q01DX001 (ip), vehicle: Klucel (hydroxypropylcellulose) (HPC) 96 % of control | dose: 400.0 mg/kg/injection, schedule: Q04DX003 (ip), vehicle: Klucel (hydroxypropylcellulose) (HPC) 93 % of control
